{"source": "paper PMC9953269", "about": "“In Vivo Acute Toxicity Studies of Novel Anti-Melanoma Compounds Downregulators of hnRNPH1/H2” (Biomolecules, 2023)", "key": {"[1]": {"tested_on": "Balb/c mice", "test": "Complete blood count (CBC) after 21-day acute toxicity study", "assay_type": "in vivo", "conditions": "50 mg/kg bw sc 3×/week for 21 days; for Eosinohils / Monocytes / WBC / RBC / Segmented Neutrophils / Hgb / MCH / MCHC / HCT / Lymphocytes / MCV / Platelets: mean ± SD; for Eosinohils: n=6, reference range 0.11–4.91; for Monocytes: n=6, reference range 3.29–12.48; for WBC: n=6, reference range 3.48–14.03; for RBC: n=6, reference range 6.93–12.24; for Segmented Neutrophils: n=6, reference range 9.86–39.11; for Hgb: n=6, reference range 12.6–20.5; for MCH: n=6, reference range 13.2–17.6; for MCHC: n=6, reference range 23.3–32.7; for HCT: n=6, reference range 42.1–68.3; for Lymphocytes: n=6, reference range 48.81–83.19; for MCV: n=6, reference range 50.7–64.4; for Platelets: n=6, reference range 420–1698; for Banded Neutrophils: n=6, reference range 0–1; for Basophils: n=6, reference range 0–1.84", "procedure": "(§1) This study used 5- to 7-week-old male and female Balb/c (Jackson Laboratories) mice. The mice were housed in standard mouse shoe-box cages and maintained in a 12-hr light/12-hr dark cycle, with 50% humidity and 20 ± 3 °C. The mice had free access to a standard pellet diet (Certified PicoLab® Rodent Diet 20, Lab Diet) and water ad libitum. The study was conducted in accordance with the guidelines of the Nova Southeastern University (NSU) Institutional Animal Care and Use Committee (NSU IACUC protocol 2019.12.DM4).\n(§2) The animals were divided into four groups with each group containing six mice (three male and three female). Group 1: non-treated control mice; Group 2: animals were treated with a vehicle control (10%/90% DMSO/sterile water, USP sterile injectable grade) for 21 days; Group 3: animals were treated with 2155-14 (50 mg/kg body weight) for 21 days; and Group 4: animals were treated with 2155-18 (50 mg/kg body weight) for 21 days three times/week. Compounds (2155-14 and 2155-18) were freshly prepared in 10% DMSO/H2O (both USP injectable grade) for each treatment day. Both 2155-14 and 2155-18 were weighed into autoclaved 1.5 mL Eppendorf vials using analytical scales. USP grade DMSO was added to each vial under aseptic conditions and vortexed. USP grade injectable sterile H2O was then added to each vial and again vortexed. Next, 1 mL insulin syringes with a 26-gauge needle were filled with 0.2 mL of the compound and delivered to the vivarium in the closed carrier for animal treatment. For the vehicle control group, syringes were filled with 0.2 mL of 10% DMSO/H2O (USP injectable grade).\n(§3) All mice were euthanized after 21 days by CO2 overdose. Whole blood samples were collected via cardiocentesis with a 25-gauge needle immediately after euthanasia. Blood samples were collected in MiniCollect® Serum and Plasma Tubes containing either K3EDTA or lithium heparin for CBC and blood chemistry, respectively. Blood smears were prepared from whole blood and analyzed for the morphological changes of blood cells under the microscope.\n(§4) The heart, lungs, stomach, intestines, pancreas, spleen, kidney with adrenal, liver, and brain were collected and placed in 10% neutral buffered formalin for histopathology. The tissues were processed via standard tissue processing to produce H&E slides. All H&E slides were reviewed blind to the treatment group. Tissues were evaluated for the presence of inflammation, degeneration, signs of toxicity, and any other abnormalities. CBC, blood chemistry, and histopathology analyses were performed at the Division of Comparative Pathology, University of Miami.\n(§5) Statistical significance was set at p < 0.05. All data were analyzed using one-way ANOVA to compare means, and significant differences were further analyzed by Tukey’s multiple comparisons using Prism (version 8.0, GraphPad Inc., San Diego, CA, USA)."}, "[2]": {"tested_on": "Balb/c mice", "test": "Blood chemistry after 21-day acute toxicity study", "assay_type": "in vivo", "conditions": "50 mg/kg bw sc 3×/week for 21 days, mean ± SD; for Creatinine: n=6, reference range 0.2–0.4; for Total protein: n=6, reference range 4.6–8.9; for BUN: n=6, reference range 7.0–26; for Phosphorus: n=6, reference range 8.2–14.7; for Calcium: n=6, reference range 9.4–12.5; for Glucose: n=6, reference range 129–329", "procedure": "as §1, §2, §3, §4, §5"}, "[3]": {"tested_on": "Balb/c mice", "test": "Body weight during 21-day acute toxicity study", "assay_type": "in vivo", "conditions": "50 mg/kg BW sc 3×/week for 3 weeks, n=6", "procedure": "as §1\nThe animals were divided into four groups with each group containing six mice (three male and three female). Group 1: non-treated control mice; Group 2: animals were treated with a vehicle control (10%/90% DMSO/sterile water, USP sterile injectable grade) for 21 days; Group 3: animals were treated with 2155-14 (50 mg/kg body weight) for 21 days; and Group 4: animals were treated with 2155-18 (50 mg/kg body weight) for 21 days three times/week. Compounds (2155-14 and 2155-18) were freshly prepared in 10% DMSO/H2O (both USP injectable grade) for each treatment day. […]\nas §5"}, "[4]": {"tested_on": "Balb/c mice", "test": "Histopathology of organs (H&E) after 21-day acute toxicity study", "assay_type": "in vivo", "conditions": "50 mg/kg sc, 21 days", "procedure": "as §2\n(§6) The heart, lungs, stomach, intestines, pancreas, spleen, kidney with adrenal, liver, and brain were collected and placed in 10% neutral buffered formalin for histopathology. […] Tissues were evaluated for the presence of inflammation, degeneration, signs of toxicity, and any other abnormalities. […]"}, "[5]": {"tested_on": "Balb/c mice", "test": "Overall acute toxicity after sc administration", "assay_type": "in vivo", "conditions": "50 mg/kg sc, 21 days", "procedure": "as §1\nThe animals were divided into four groups with each group containing six mice (three male and three female). […]\nAll mice were euthanized after 21 days by CO2 overdose. […] Blood smears were prepared from whole blood and analyzed for the morphological changes of blood cells under the microscope.\nas §6"}, "[6]": {"tested_on": "melanoma cells", "conditions": "in vitro; read-out: IC50, inhibition of viability of melanoma cells; cited from earlier work"}, "[7]": {"tested_on": "various cell types (liver, lung, breast, brain, skin, ovary, primary melanocytes, primary keratinocytes)", "conditions": "in vitro, tested up to 100 µM; cited from earlier work"}, "[8]": {"tested_on": "primary melanocytes", "conditions": "in vitro; cited from earlier work"}}}
{"smiles": "O=C1NC[C@H](Cc2ccccc2)N(C[C@@H]2CCCN2C[C@@H](CC2CCCCC2)N2C[C@H](Cc3ccc(O)cc3)N(CCc3ccccc3)C(=O)C2=O)C1=O", "note": "[Compound 2155-14]", "values": [{"measurement": "Eosinohils", "setting": "[1]", "result": "0.5 ± 1.2", "unit": "%"}, {"measurement": "Monocytes", "setting": "[1]", "result": "4.25 ± 4.27", "unit": "%"}, {"measurement": "WBC", "setting": "[1]", "result": "5.1 ± 1.6", "unit": "K/µL"}, {"measurement": "RBC", "setting": "[1]", "result": "10.6 ± 2.1", "unit": "M/µL"}, {"measurement": "Segmented Neutrophils", "setting": "[1]", "result": "18.8 ± 8.0", "unit": "%"}, {"measurement": "Hgb", "setting": "[1]", "result": "14.1 ± 1.6", "unit": "g/dL"}, {"measurement": "MCH", "setting": "[1]", "result": "14 ± 2.3", "unit": "pg"}, {"measurement": "MCHC", "setting": "[1]", "result": "23 ± 5.1", "unit": "g/dL"}, {"measurement": "HCT", "setting": "[1]", "result": 61.1, "unit": "%"}, {"measurement": "Lymphocytes", "setting": "[1]", "result": "78.3 ± 7.5", "unit": "%"}, {"measurement": "MCV", "setting": "[1]", "result": "61 ± 2.2", "unit": "fL"}, {"measurement": "Platelets", "setting": "[1]", "result": "542 ± 95", "unit": "K/µL"}, {"measurement": "Banded Neutrophils", "setting": "[1]", "result": 0, "unit": "%"}, {"measurement": "Basophils", "setting": "[1]", "result": 0, "unit": "%"}, {"measurement": "Creatinine", "setting": "[2]", "result": "* 0.44 ± 0.19 mg/dL"}, {"measurement": "Total protein", "setting": "[2]", "result": "7.1 ± 0.6", "unit": "g/dL"}, {"measurement": "BUN", "setting": "[2]", "result": "18.3 ± 2.5", "unit": "mg/dL"}, {"measurement": "Phosphorus", "setting": "[2]", "result": "13.6 ± 0.4", "unit": "mg/dL"}, {"measurement": "Calcium", "setting": "[2]", "result": "9.1 ± 0.85", "unit": "mg/dL"}, {"measurement": "Glucose", "setting": "[2]", "result": "181 ± 25.7", "unit": "mg/dL"}, {"measurement": "Change in body weight versus control groups", "setting": "[3]", "result": "No significant changes in body weight"}, {"measurement": "Histopathological examination of hearts and livers", "setting": "[4]", "result": "no adverse effects"}, {"measurement": "Acute toxicity after sc administration", "setting": "[5]", "result": "lack of acute toxicity"}, {"measurement": "IC50", "setting": "[6]", "result": "0.5 to 10", "unit": "µM"}, {"measurement": "TC50, toxicity against various cell types", "setting": "[7]", "result": "> 100", "unit": "µM"}, {"measurement": "Effect on viability of primary melanocytes", "setting": "[8]", "result": "do not have an effect on the viability of primary melanocytes"}]}
{"smiles": "O=C1NC[C@H](Cc2ccccc2)N(C[C@@H]2CCCN2C[C@H](Cc2ccccc2)N2C[C@H](Cc3ccc(O)cc3)N(CCC34CC5CC(CC(C5)C3)C4)C(=O)C2=O)C1=O", "note": "[Compound 2155-18]", "values": [{"measurement": "Eosinohils", "setting": "[1]", "result": "2 ± 1", "unit": "%"}, {"measurement": "Monocytes", "setting": "[1]", "result": "6.7 ± 2.3", "unit": "%"}, {"measurement": "WBC", "setting": "[1]", "result": "4.2 ± 2.7", "unit": "K/µL"}, {"measurement": "RBC", "setting": "[1]", "result": "7.9 ± 1.4", "unit": "M/µL"}, {"measurement": "Segmented Neutrophils", "setting": "[1]", "result": "24.7 ± 10.9", "unit": "%"}, {"measurement": "Hgb", "setting": "[1]", "result": "* 11.9 ± 1.6 g/dL"}, {"measurement": "MCH", "setting": "[1]", "result": "14.7 ± 0.57", "unit": "pg"}, {"measurement": "MCHC", "setting": "[1]", "result": "25.3 ± 0.58", "unit": "g/dL"}, {"measurement": "HCT", "setting": "[1]", "result": "46.9 ± 6.4", "unit": "%"}, {"measurement": "Lymphocytes", "setting": "[1]", "result": "70.7 ± 11.3", "unit": "%"}, {"measurement": "MCV", "setting": "[1]", "result": "59.3 ± 2.1", "unit": "fL"}, {"measurement": "Platelets", "setting": "[1]", "result": "741 ± 305", "unit": "K/µL"}, {"measurement": "Banded Neutrophils", "setting": "[1]", "result": 0, "unit": "%"}, {"measurement": "Basophils", "setting": "[1]", "result": 0, "unit": "%"}, {"measurement": "Creatinine", "setting": "[2]", "result": "* 0.46 ± 0.11 mg/dL"}, {"measurement": "Total protein", "setting": "[2]", "result": "6.7 ± 0.48", "unit": "g/dL"}, {"measurement": "BUN", "setting": "[2]", "result": "16.7 ± 1.6", "unit": "mg/dL"}, {"measurement": "Phosphorus", "setting": "[2]", "result": "* 15.3 ± 0.25 mg/dL"}, {"measurement": "Calcium", "setting": "[2]", "result": "8.7 ± 0.75", "unit": "mg/dL"}, {"measurement": "Glucose", "setting": "[2]", "result": "212 ± 50.5", "unit": "mg/dL"}, {"measurement": "Change in body weight versus control groups", "setting": "[3]", "result": "No significant changes in body weight"}, {"measurement": "Histopathological examination of hearts and livers", "setting": "[4]", "result": "no adverse effects"}, {"measurement": "Acute toxicity after sc administration", "setting": "[5]", "result": "lack of acute toxicity"}, {"measurement": "IC50", "setting": "[6]", "result": "0.5 to 10", "unit": "µM"}, {"measurement": "TC50, toxicity against various cell types", "setting": "[7]", "result": "> 100", "unit": "µM"}, {"measurement": "Effect on viability of primary melanocytes", "setting": "[8]", "result": "do not have an effect on the viability of primary melanocytes"}]}
